{"source": "patent US20160303184A1", "about": "“VANCOMYCIN-SUGAR CONJUGATES AND USES THEREOF” (JAWAHARLAL NEHRU CENTRE FOR ADVANCED SCIENTIFIC RESEARCH …, priority 2013, published 2016)", "key": {"[1]": {"tested_on": "Vancomycin-resistant E. faecalis (VanA, ATCC 51575)", "assay": "MIC, micro-dilution broth, VRE (VanB)", "type": "cell-based", "details": "Enterococcus faecalis, read-out: MIC VRE (VanB)"}, "[2]": {"assay": "Acute toxicity (blood biochemistry, liver and kidney histology)", "type": "in vivo, mice", "details": "12 mg/kg i.v.", "procedure": "For the evaluation of the acute toxicity, two groups of 10 mice each received intravenous injection of compound 7 at 12 mg/kg in 0.2 ml of sterilized saline. 10 mice were sacrificed at 48 h and the rest mice at 14 days to collect blood samples for analysis of biochemical parameters such as alanine transaminase (ALT), alkaline phosphatase (ALP), urea nitrogen, creatinine, sodium ion, potassium ion and chloride ion levels. Blood samples were analyzed at Gokula Metropolis clinical laboratory, Bengaluru, India. And also to examine the adverse effects of compound 7 in tissue level, we have isolated liver and kidney organs in 10% neutral formalin. Tissues were processed by dehydration in ascending grades of ethyl alcohol, clearing in xylol, embedding in paraffin wax and prepared sections of 5 μm thickness. Then paraffin sections were stained using haematoxylin and eosin, and observed under light microscope for histological changes."}, "[3]": {"assay": "Single dose pharmacokinetics", "type": "in vivo, CD-1 female mice", "set-up": "clearance: unit not given here", "details": "12 mg/kg single i.v., mice, plasma", "procedure": "A single dose pharmacokinetic analysis of compound 7 was performed in CD-1 female mice. Mice were administered a single intravenous dose of 12 mg/kg. Blood samples were collected from mice by retro-orbital aspiration and placed into heparinized tubes at different time intervals after dosing. The plasma was separated by centrifugation, and drug plasma concentrations were measured by microbiologic assay with Bacillus subtilis as the test organism. The lower limit of detection of the assay was 0.6 μg/ml. Pharmacokinetic parameters, including half-life, AUC and Cmax were calculated by using non-compartmental model."}, "[4]": {"tested_on": "Methicillin-sensitive S. aureus (MTCC 737)", "assay": "MIC, micro-dilution broth, MSSA", "type": "cell-based", "details": "Staphylococcus aureus, read-out: MIC MSSA", "procedure": "(§1) All test compounds were assayed in a micro-dilution broth format. Stock solutions were made by serially diluting the compounds using autoclaved millipore water or broth media. The antibacterial activity of the compounds was determined against methicillin-sensitive S. aureus (MSSA), methicillin-resistant S. aureus (MRSA), vancomycin-intermediate-resistant S. aureus (VISA), vancomycin-sensitive E. faecium (VSE) and vancomycin-resistant E. faecium (VRE). Bacteria, to be tested, were grown for about 10 h in the suitable media, MSSA, MRSA and VISA were grown in yeast-dextrose broth (about 1 g of beef extract, about 2 g of yeast extract, about 5 g of peptone and about 5 g of NaCl in about 1000 mL of sterile distilled water (pH-7)). For solid media, about 5% agar was used along with above mentioned composition. VSE and VRE were cultured in brain heart infusion broth (Himedia). The bacterial samples were freeze dried and stored at −80° C. About 5 μL of these stocks were added to about 3 mL of the nutrient broth and the culture was grown for about 6 h at about 37° C. prior to the experiments. This 6 h grown culture gives about 10^9 cfu/mL and this was determined by spread plating method. The 6 h grown culture was diluted to give effective cell concentration of about 10^5 cfu/mL which was then used for determining MIC. Compounds were serially diluted, in sterile water (2 fold dilution is employed) in a way that the working concentration was about 10 μM for MSSA, MRSA, and VSE while for VRE and VISA it was about 100 μM. About 50 μL of these serial dilutions were added to the wells of 96 well plate followed by the addition of about 150 μL of bacterial solution. The plates were then incubated at about 37° C., 150 rpm in the incubator and O.D at 600 nm was recorded at an interval of about 10 h and 24 h using TECAN (Infinite series, M200 pro) Plate Reader. Each concentration had triplicate values and the whole experiment was done at least twice and the MIC value was determined by taking the average of triplicate. O. D. values for each concentration and plotting it against concentration. The data was then subjected to sigmoidal fitting. From the curve the MIC value was determined, as the point in the curve where the O. D. was similar to that of control having no bacteria."}, "[5]": {"tested_on": "Methicillin-resistant S. aureus (ATCC 33591)", "assay": "MIC, micro-dilution broth, MRSA", "type": "cell-based", "details": "Staphylococcus aureus, read-out: MIC MRSA", "procedure": "as §1"}, "[6]": {"tested_on": "methicillin-resistant S. epidermidis clinical isolate", "assay": "MIC, clinical isolate of methicillin-resistant S. epidermidis", "type": "cell-based", "details": "Staphylococcus epidermidis, read-out: MIC S. epidermidis"}, "VISA": {"tested_on": "VISA", "assay": "In-vivo time dependent whole blood assay", "set-up": "species or system S. aureus", "details": "12 mg/kg single i.v., CD-1 mice", "procedure": "The derivative 7 and vancomycin were administered in a single intravenous injection (0.2 mL saline) to normal pathogen-free, female CD-1 mice. Doses of 12 mg kg^−1 were administered to three mice per data point. At the specified time-points (0, 3, 6, 12, 24 and 48 h) mice were euthanized (using ether), blood samples were collected from the ocular puncture. 60 μL of VISA in saline (0.9% NaCl; 10^6 CFU/mL) was added to 540 μL of whole blood which was drawn from the mice and incubated at 37° C. for 3 h. After the incubation period, antibacterial activity was determined by finding the bacterial titer in the infected blood."}, "[7]": {"tested_on": "methicillin-resistant S. aureus clinical isolate", "assay": "MIC, clinical isolate of methicillin-resistant S. aureus", "type": "cell-based", "details": "Staphylococcus aureus, read-out: MIC S. aureus", "procedure": "as §1"}}, "note": "“Also recorded” adds a separate entry of the source. Read-outs that look alike come from different tables or passages of the source.", "data": [{"compound": "CCCCCCCCCCN[C@]1(C)C[C@H](OC2C(O)[C@@H](O)C(CO)O[C@@H]2Oc2c3cc4cc2Oc2ccc(cc2Cl)[C@@H](O)[C@@H](NC(=O)[C@@H](CC(C)C)NC)C(=O)N[C@@H](CC(N)=O)C(=O)N[C@H]4C(=O)N[C@H]2C(=O)N[C@H](C(=O)N[C@H](C(=O)NCCCNC(=O)[C@H](O)[C@@H](O)[C@H](OC4OC(CO)C(O)C(O)[C@H]4O)[C@H](O)CO)c4cc(O)cc(O)c4-c4cc2ccc4O)[C@H](O)c2ccc(c(Cl)c2)O3)OC(C)[C@@H]1O", "note": "(stereo partly shown) [Compound 7]", "values": [{"measurement": "MIC", "setting": "[1]", "result": 1, "unit": "µM"}, {"measurement": "acute damage to liver and kidney functions", "setting": "[2]; 48 h and 14 days", "result": "did not cause any significant acute damage; also recorded: no significant acute damage"}, {"measurement": "Chloride ion", "setting": "[2]; 48 h post-treatment", "result": "112.9 ± 1.52", "unit": "mmol/L"}, {"measurement": "Kidney Creatinine", "setting": "[2]; 48 h post-treatment", "result": "0.2 ± 0.133", "unit": "mg/dL"}, {"measurement": "Liver ALT", "setting": "[2]; 48 h post-treatment", "result": "55.23 ± 5.24", "unit": "U L^−1"}, {"measurement": "Potassium ion", "setting": "[2]; 48 h post-treatment", "result": "6.86 ± 0.81", "unit": "mmol/L"}, {"measurement": "Sodium ion", "setting": "[2]; 48 h post-treatment", "result": "143.63 ± 1.65", "unit": "mmol/L"}, {"measurement": "Urea Nitrogen", "setting": "[2]; 48 h post-treatment", "result": "19.52 ± 3.25", "unit": "mg/dL"}, {"measurement": "Chloride ion", "setting": "[2]; 14 days post treatment", "result": "110.85 ± 2.16", "unit": "mmol/L"}, {"measurement": "Kidney Creatinine", "setting": "[2]; 14 days post treatment", "result": "0.22 ± 0.1", "unit": "mg/dL"}, {"measurement": "Liver ALT", "setting": "[2]; 14 days post treatment", "result": "53.28 ± 3.78", "unit": "U L^−1"}, {"measurement": "Potassium ion", "setting": "[2]; 14 days post treatment", "result": "6.75 ± 0.833", "unit": "mmol/L"}, {"measurement": "Sodium ion", "setting": "[2]; 14 days post treatment", "result": "143.04 ± 0.71", "unit": "mmol/L"}, {"measurement": "Urea Nitrogen", "setting": "[2]; 14 days post treatment", "result": "24.46 ± 4.93", "unit": "mg/dL"}, {"measurement": "gross anatomical and histopathological examination of liver and kidney sections", "setting": "[2]; compared to control", "result": "no significant changes"}, {"measurement": "Cmax", "setting": "[3]", "result": 703, "unit": "µg/mL"}, {"measurement": "Cmin", "setting": "[3]", "result": 1.7, "unit": "µg/mL"}, {"measurement": "half-life", "setting": "[3]; female, CD-1, mouse, iv", "result": 2.76, "unit": "h"}, {"measurement": "AUC(0-t)", "setting": "[3]; female, CD-1, mouse, iv, read-out: AUC0-24 h", "result": 562, "unit": "µg·h/mL"}, {"measurement": "Cmax", "setting": "[3]; female, CD-1, mouse, iv, 12 mg/kg, read-out: Cmax", "result": 703, "unit": "µg/mL"}, {"measurement": "clearance", "setting": "[3]; female, CD-1, mouse, iv", "result": 4.17}, {"measurement": "AUC", "setting": "[3]; female, CD-1, mouse, iv, 0.083 h to 24 h", "result": 562, "unit": "µg·h/mL"}, {"measurement": "MIC", "setting": "[4]", "result": 0.2, "unit": "µM"}, {"measurement": "MIC", "setting": "[5]", "result": 0.3, "unit": "µM"}, {"measurement": "MIC", "setting": "[6]", "result": 0.3, "unit": "µM"}, {"measurement": "CFU/mL reduction", "setting": "VISA; blood drawn up to 24 h, VISA", "result": 3, "unit": "log10 CFU/mL"}, {"measurement": "time after dosing up to which blood showed antibacterial activity", "setting": "VISA; blood incubated with VISA 3 h", "result": 24, "unit": "h"}, {"measurement": "MIC", "setting": "[7]", "result": 0.3, "unit": "µM"}]}]}
